The values that follow come from patent publication US9145415B2, “Nitrogen-containing heterocyclic compound or salt thereof” (FUJIFILM Corporation, priority 2012, dated 2015).

In assay [1] the test system is MV4-11 cells. Description: Leukemia cell proliferation inhibition test (ATPlite), MV4-11. Conditions: Homo sapiens, read-out: MV4-11 cell proliferation inhibition effect. Format: cell-based. The method in brief: (§1)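 72 h proliferation, 37° C/5% CO2; 10,000 cells/well, RPMI/10% FBS; ATPlite luminescence (RLU); 0.1% DMSO taken as 0% inhibition; GI50 via sigmoid fit, n=2.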
On the technique in general: Cellular ATP, detected with luciferase, serves as a proxy for viable cell number.

In assay [2] the test system is Molm-13 cells. The assay is described as follows: Leukemia cell proliferation inhibition test (ATPlite), Molm-13. Format: cell-based. To be noted: Homo sapiens, read-out: MOLM13 cell proliferation inhibition effect. The essentials:
as §1

The target of assay [3] is T1, human FLT3 protein (FLT3 (WT)) (Homo sapiens, UniProt P36888).
T1 construct: human FLT3 protein (intracellular region, 564 to 993 aa); GST; purchased Carna Biosciences; host or cells: baculovirus expression system
T1 sequence (P36888 564-993): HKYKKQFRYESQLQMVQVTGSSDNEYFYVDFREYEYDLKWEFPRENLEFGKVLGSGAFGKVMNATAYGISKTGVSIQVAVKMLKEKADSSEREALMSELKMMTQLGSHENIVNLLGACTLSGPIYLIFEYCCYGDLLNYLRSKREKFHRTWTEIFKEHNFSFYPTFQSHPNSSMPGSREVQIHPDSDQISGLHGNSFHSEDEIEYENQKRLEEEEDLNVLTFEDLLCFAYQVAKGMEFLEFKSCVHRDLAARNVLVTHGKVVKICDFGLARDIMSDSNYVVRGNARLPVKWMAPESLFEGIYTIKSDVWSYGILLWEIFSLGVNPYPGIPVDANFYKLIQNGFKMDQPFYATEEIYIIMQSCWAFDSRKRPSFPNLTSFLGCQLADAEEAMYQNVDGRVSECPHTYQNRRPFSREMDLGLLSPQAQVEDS
The assay is described as follows: FLT3 inhibition test (FLT3 enzyme inhibition, time-resolved fluorescence of substrate peptide phosphorylation). Conditions: read-out: FLT3 (WT) enzyme inhibition activity. Format: biochemical. The method in brief: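 Wild-type human FLT3 (1.2 μg) pre-incubated with compound 15 min at 25° C in 100 mM HEPES pH 7.5, 10 mM MgCl2, 25 mM NaCl, 1 mM DTT. Reaction started with substrate peptide and ATP (final 50 μM), run 30 min at 25° C; phosphorylation read by time-resolved fluorescence.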

The mark [4] stands for this setting: MV4-11, 72 h, MV4-11, 72 hours culture, ATPlite, GI50 per method.
[5] abbreviates: MOLM-13, 72 h, Molm-13, 72 hours culture, ATPlite, GI50 per method.
[6] abbreviates: GST-fused human FLT3 (564 to 993 aa), ATP 50 μM.

Molecules are shown by their SMILES. Like-named read-outs stand apart in the source and are kept apart here.

In the case of `CCCNc1nc(Nc2ccc(Cn3ccnn3)cc2)ncc1C#CCCCNC(=O)CN(C)C(=O)/C=C/CN(C)C` [Compound 12-12], the figures for the IC50 in assay [1] (setting [4]), in assay [2] (setting [5]) and in assay [3] (setting [6]) were 10 to 100 nM, below 10 nM and 10 to 100 nM, respectively.

Consider `CCCNc1nc(Nc2ccc(C#N)cc2)ncc1C#CCNC(=O)CCNC(=O)/C=C/CN(C)C` [Compound 7-90], for which the IC50 is 100 to 1000 nM in assay [1] (setting [4]), 100 to 1000 nM in assay [2] (setting [5]) and below 10 nM in assay [3] (setting [6]).

Turning to `C=CC(=O)Nc1cccc(CNC(=O)c2cnc(NCCc3ccncc3)nc2NCCC)c1` [Compound 2-26], the figures for the IC50 in assay [1] (setting [4]), in assay [2] (setting [5]) and in assay [3] (setting [6]) were 100 to 1000 nM, 100 to 1000 nM and 10 to 100 nM, respectively.

In the case of `CCNc1nc(Nc2cccc(F)c2)ncc1C#C[C@@H]1CCC[C@H](NC(=O)[C@H](C)N(C)C(=O)/C=C/CN(C)C)C1` [Compound 21-27], the IC50 in assay [1] (setting [4]), in assay [2] (setting [5]) and in assay [3] (setting [6]) was below 10 nM each time.

In the case of `CC(C)c1ccc(Nc2nc(Nc3cccc(F)c3)ncc2C#CCCCNC(=O)[C@H](C)N(C)C(=O)/C=C/CN(C)C)cc1` [Compound 10-12], the results for the IC50 in assay [1] (setting [4]), in assay [2] (setting [5]) and in assay [3] (setting [6]) were below 10 nM, 10 to 100 nM and below 10 nM, respectively.

`CC[C@@H](C(=O)NCCCC#Cc1cnc(Nc2ccc(F)nc2)nc1NCC(F)(F)F)N(C)C(=O)/C=C/CN(C)C` [Compound 10-35]: the IC50 in assay [1] (setting [4]) is below 10 nM; in assay [2] (setting [5]), 10 to 100 nM; in assay [3] (setting [6]), below 10 nM.

With `COCCCNc1nc(Nc2ccc3cnn(C)c3c2)ncc1C#CCCCNC(=O)[C@H](C)N(C)C(=O)/C=C/CN(C)C` [Compound 10-59], the IC50 in assay [1] (setting [4]), in assay [2] (setting [5]) and in assay [3] (setting [6]) was below 10 nM in each case.

For the compound `C[C@@H](C(=O)N[C@H]1CCC[C@@H](C#Cc2cnc(Nc3ccnc(F)c3)nc2N2CCOCC2)C1)N(C)C(=O)/C=C/CN(C)C` [Compound 14-3], the IC50 in assay [1] (setting [4]), in assay [2] (setting [5]) and in assay [3] (setting [6]) was below 10 nM throughout.

On to `C[C@@H](C(=O)NCCCC#Cc1cnc(Nc2cccc(F)c2)nc1N1CCOCC1)N(C)C(=O)/C=C/CN(C)C` [Compound 10-5, (S,E)-4-(Dimethylamino)-N-(1-((5-(2-((3-fluorophenyl)amino)-4-morpholinopyrimidin-5-yl)-4-pentyn-1-yl)amino)-1-oxopropan-2-yl)-N-methyl-2-butenamide], for which the IC50 in assay [1] (setting [4]), in assay [2] (setting [5]) and in assay [3] (setting [6]) was below 10 nM each time.

`C[C@@H](C(=O)NCCCC#Cc1cnc(Nc2ccnc(F)c2)nc1NC1CC1)N(C)C(=O)/C=C/CN(C)C` [Compound 9-15, (S,E)-N-(1-((5-(4-(Cyclopropylamino)-2-((2-fluoropyridin-4-yl)amino)pyrimidin-5-yl)-4-pentyn-1-yl)amino)-1-oxopropan-2-yl)-4-(dimethylamino)-N-methyl-2-butenamide]: the IC50 in assay [1] (setting [4]), in assay [2] (setting [5]) and in assay [3] (setting [6]) was below 10 nM each time.

For `CC(C)Nc1nc(Nc2ccc(C#N)cc2)ncc1C#CCCCNC(=O)[C@H](C)N(C)C(=O)/C=C/CN(C)C` [Compound 21-33], the IC50 in assay [1] (MV4-11, MV4-11 cell) is below 10 nM; in assay [2] (MOLM-13, MOLM13 cell), below 10 nM; in assay [3] (FLT3 (WT)), below 10 nM.

As to `CC(C)Nc1nc(Nc2ccc(C#N)cc2)ncc1C#C[C@@H]1CCC[C@H](NC(=O)[C@H](C)N(C)C(=O)/C=C/CN(C)C)C1` [Compound 21-31], the IC50 in assay [1] (MV4-11, MV4-11 cell) is below 10 nM; in assay [2] (MOLM-13, MOLM13 cell), below 10 nM; in assay [3] (FLT3 (WT)), below 10 nM.

`CCCNc1nc(Nc2ccnc(OC)c2)ncc1C#CCCCNC(=O)[C@@H]1CCCN1C(=O)/C=C/CN(C)C` [Compound 9-35, (S,E)-1-(4-(Dimethylamino)-2-butenoyl)-N-(5-(2-((2-methoxypyridin-4-yl)amino)-4-(propylamino)pyrimidin-5-yl)-4-pentyn-1-yl)pyrrolidine-2-carboxamide]: the IC50 in assay [1] (setting [4]), in assay [2] (setting [5]) and in assay [3] (setting [6]) was below 10 nM throughout.
